Source: patent publication EP1806348A2, “Pyrido (2,3-D)Pyrimidines as inhibitors of cellular proliferation” (Warner-Lambert Company LLC, priority 1997, dated 1998)

Columns and labels:
cdk4/D = cdk4/D (Homo sapiens, UniProt P11802); test: Cyclin-dependent kinase 4 (cdk4) enzyme assay, 32P incorporation into retinoblastoma; format: biochemical; settings: Table 1; 25 µM ATP, retinoblastoma substrate
Procedure: A typical assay, for instance, measures inhibitory activity against the cyclin D dependent kinase 4 enzyme (cdk4/D). […] The cdk 4 assay was carried out as follows.
(§1) All components except the ATP were added to the wells, and the plate was placed on a plate mixer for 2 minutes. […] The reaction was terminated by addition of 0.1 mL of 20% trichloroacetic acid (TCA). The plate was kept at 4°C for at least 1 hour to allow the substrate to precipitate. The wells were then washed five times with 0.2 mL of 10% TCA and ^32P incorporation was determined with a beta plate counter (Wallac Inc., Gaithersburg, MD).

cdk2/cyclinE = cdk2/cyclinE (Homo sapiens, UniProt P24941); test: Cyclin-dependent kinase assay (cdk2/cyclinE); format: biochemical; settings: Table 1; read-out: cdk2/E IC50
Procedure: as §1, with “TCA.” for “trichloroacetic acid (TCA).”, “incorporation” for “incorporation was”

cdk2/cyclinA = cdk2/cyclinA (Homo sapiens, UniProt P24941); test: Cyclin-dependent kinase assay (cdk2/cyclinA); format: biochemical; settings: Table 1
Procedure: as §1, with “TCA.” for “trichloroacetic acid (TCA).”, “incorporation” for “incorporation was”

cdc2/cyclinB = cdc2/cyclinB (Homo sapiens, UniProt P06493); test: Cyclin-dependent kinase assay (cdc2/cyclinB); format: biochemical; settings: Table 1; read-out: cdk1/B IC50
Procedure: as §1, with “TCA.” for “trichloroacetic acid (TCA).”, “incorporation” for “incorporation was”

c-Src = c-Src (Homo sapiens, UniProt P12931); test: c-Src protein kinase assay; format: biochemical; settings: Table 5
Procedure: C-Src kinase was purified from baculovirus infected insect cell lysates using an antipeptide monoclonal antibody directed against the N-terminal amino acids (amino acids 2-17) of c-Src. The antibody, covalently linked to 0.65 µm latex beads, was added to a suspension of insect cell lysis buffer comprised of 150 mM NaCl, 50 mM Tris pH 7.5, 1 mM DTT, 1% NP-40,2 mM EGTA, 1 mM sodium vanadate, 1 mM PMSF, 1 µg/mL each of leupeptin, pepstatin, and aprotinin. Insect cell lysate containing c-Src protein was incubated with these beads for 3 to 4 hours at 4°C with rotation. At the end of the lysate incubation, the beads were rinsed three times in lysis buffer, resuspended in lysis buffer containing 10% glycerol, and frozen. These latex beads were thawed, rinsed three times in assay buffer (40 mM Tris, pH 7.5, […]) and suspended in the same buffer. In a Millipore 96-well plate with a 0.65 µm polyvinylidine membrane bottom were added the reaction components: 10 µL c-Src beads, 10 µL of 2.5 mg/mL poly GluTyr substrate, 5 µM ATP containing 0.2 µCi labeled ^32P-ATP, 5 µL DMSO containing inhibitors or as a solvent control, and buffer to make the final volume 125 µL. The reaction was started at room temperature by addition of the ATP and quenched 10 minutes later by the addition of 125 µL of 30% TCA, 0.1 M sodium pyrophosphate for 5 minutes on ice. […] The filters were then punched, counted in a liquid scintillation counter, and the data examined for inhibitory activity in comparison to a known inhibitor such as erbstatin. […]

[1] = Plasma levels in mice after dosing; format: in vivo, nude mice; settings: at 30 minutes following dosing
Procedure: For example, the compound of Example 60 was administered orally at 5 mg/kg to mice, and plasma levels of about 200 nM were measured at 30 minutes following dosing. The compound was also administered intraperitoneally at 12 mg/kg and produced a peak plasma concentration of 10,000 nM at 30 minutes following dosing.

[2] = tested on: MCF-7 human mammary tumor xenografts; test: MCF-7 tumor xenograft growth inhibition in mice; format: in vivo, female nude mice; settings: doses of 5 to 20 mg/kg, schedule q12h × 2; days 1-14

cdc2/cyclinB, sequence (P06493 whole entry): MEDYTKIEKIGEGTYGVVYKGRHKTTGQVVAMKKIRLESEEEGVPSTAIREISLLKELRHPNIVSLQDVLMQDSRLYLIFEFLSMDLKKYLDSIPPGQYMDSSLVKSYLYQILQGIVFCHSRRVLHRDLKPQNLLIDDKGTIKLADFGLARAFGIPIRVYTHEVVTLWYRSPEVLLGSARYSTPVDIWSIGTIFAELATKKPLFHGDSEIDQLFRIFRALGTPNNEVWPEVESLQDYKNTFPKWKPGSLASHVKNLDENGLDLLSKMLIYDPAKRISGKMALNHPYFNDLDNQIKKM
cdc2/cyclinB, sequence (P14635 whole entry, further chain): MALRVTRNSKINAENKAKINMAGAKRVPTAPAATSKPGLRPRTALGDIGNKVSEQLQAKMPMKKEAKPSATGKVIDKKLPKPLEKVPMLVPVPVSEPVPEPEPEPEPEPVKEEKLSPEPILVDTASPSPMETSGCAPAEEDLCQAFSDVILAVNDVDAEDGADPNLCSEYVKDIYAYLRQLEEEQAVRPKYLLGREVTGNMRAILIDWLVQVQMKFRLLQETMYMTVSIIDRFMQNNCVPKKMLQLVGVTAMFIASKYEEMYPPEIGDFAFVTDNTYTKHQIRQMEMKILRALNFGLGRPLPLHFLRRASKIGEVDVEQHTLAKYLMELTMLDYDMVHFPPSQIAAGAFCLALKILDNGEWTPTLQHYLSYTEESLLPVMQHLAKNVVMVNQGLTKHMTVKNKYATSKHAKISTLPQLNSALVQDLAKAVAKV
c-Src, sequence (P12931 whole entry, the tested form may be a part): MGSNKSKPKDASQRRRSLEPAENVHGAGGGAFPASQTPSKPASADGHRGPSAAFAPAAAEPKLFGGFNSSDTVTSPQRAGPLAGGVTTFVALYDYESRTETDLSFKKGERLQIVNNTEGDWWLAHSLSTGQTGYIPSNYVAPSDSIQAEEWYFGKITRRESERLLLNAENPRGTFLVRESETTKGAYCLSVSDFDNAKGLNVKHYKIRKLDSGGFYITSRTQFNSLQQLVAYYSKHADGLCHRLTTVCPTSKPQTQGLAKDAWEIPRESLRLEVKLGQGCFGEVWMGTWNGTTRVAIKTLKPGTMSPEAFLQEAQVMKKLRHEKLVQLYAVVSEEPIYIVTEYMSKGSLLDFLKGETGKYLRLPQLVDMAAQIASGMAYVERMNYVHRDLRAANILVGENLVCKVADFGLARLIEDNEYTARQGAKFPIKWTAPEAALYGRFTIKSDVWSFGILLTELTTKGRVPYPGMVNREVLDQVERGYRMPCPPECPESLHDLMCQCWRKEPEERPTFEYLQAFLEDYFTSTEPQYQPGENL
cdk4/D, sequence (P11802 whole entry): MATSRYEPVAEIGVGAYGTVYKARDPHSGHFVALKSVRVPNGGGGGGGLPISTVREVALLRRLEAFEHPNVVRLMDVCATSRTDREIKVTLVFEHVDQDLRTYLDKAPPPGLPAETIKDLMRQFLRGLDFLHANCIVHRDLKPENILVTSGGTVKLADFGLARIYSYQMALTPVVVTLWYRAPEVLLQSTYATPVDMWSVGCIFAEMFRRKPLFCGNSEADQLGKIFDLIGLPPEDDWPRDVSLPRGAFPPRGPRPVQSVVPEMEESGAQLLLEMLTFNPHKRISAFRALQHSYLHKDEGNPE
cdk4/D, sequence (P24385 whole entry, further chain): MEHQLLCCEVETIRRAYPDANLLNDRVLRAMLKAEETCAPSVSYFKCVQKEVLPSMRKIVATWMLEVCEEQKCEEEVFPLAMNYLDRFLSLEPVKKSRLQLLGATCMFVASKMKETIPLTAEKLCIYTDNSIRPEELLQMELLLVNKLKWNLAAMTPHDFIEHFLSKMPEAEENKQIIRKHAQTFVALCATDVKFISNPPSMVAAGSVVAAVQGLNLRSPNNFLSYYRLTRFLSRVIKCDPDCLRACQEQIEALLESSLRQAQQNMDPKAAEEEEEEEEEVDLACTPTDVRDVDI

Work on CC(C)n1c(=O)ccc2cnc(Nc3ccc(N4CCN(C)CC4)cc3)nc21 [Example 60, 8-Isopropyl-2-[4-(4-methylpiperazin-1-yl)-phenylamino]-8H-pyrido[2,3-d]pyrimidin-7-one] yielded an IC50 (cdk4/D) of 0.032 µM, an IC50 (cdk2/cyclinE) of 0.27 µM and an IC50 (cdk2/cyclinA) of 0.058 µM. For the same compound, the IC50 (cdc2/cyclinB) was 0.675 µM, the IC50 (c-Src) was 0.89 µM and the peak plasma concentration ([1]; intraperitoneally at 12 mg/kg) was 10,000 nM. For the same compound, the concentration at 30 min ([1]; nude, mouse, plasma, po, mice, orally at 5 mg/kg) was about 200 nM and the tumor growth inhibitions [2] was “statistically insignificant tumor growth inhibitions”.
